Data reported in patent publication US4997926A, “Deaminase-stable anti-retroviral 2-halo-2',3'-dideoxy” (Scripps Clinic and Research Foundation, priority 1987, dated 1991).
Like-named read-outs stand apart in the source and are kept apart here.

Legend:
[1] = system: deoxycytidine kinase deficient CEM T cells (clone AraC-8D); format: in vitro ADME, human
Protocol: (§1) ^1 Human CEM T cells, or variants deficient in either deoxycytidine
(§2) kinase, or deoxycytidine kinase plus adenosine kinase, were incubated at
(§3) density of 5 × 10^7 cells/ml in medium containing 3 uM [8^3
(§4) H2-chloro-2',3dideoxyadenosine. After 4 hours, the nucleotides in the
(§5) methanolsoluble extracts were determined after separation by HPLC, as
(§6) described in the Materials and Methods.
(§7) The human T lymphoblastoid cell line, CCRF-CEM, and mutants deficient in either deoxycytidine kinase (clone AraC-8D), or deoxycytidine kinase plus adenosine kinase (clone AraC-8DM10-5) were obtained and propagated as described previously [Foley et al., (1965) Cancer, 18:552-529 and Hershfield et al., (1982) J. Biol. Chem., 257:6380-6386]. For metabolic studies, the cells were cultured in RPMI 1640 medium supplemented with 2 mM L-glutamine and 10 percent fetal bovine serum at a density of 2×10^7 cells/ml in the presence of radiolabelled dideoxynucleosides, as indicated earlier. Some cultures were pre-incubatedfor 30 minutes either with 5 uM 2'-deoxycoformycin or 50 uM coformycin. After 4 hours of incubation the cells were harvested by centrifugation.
(§8) The cell pellets were washed with Hank's balanced salt solution at 4 degrees C., and extracted with 1 ml 60 percent methanol/water at -20 degrees C. for 10 minutes. Initial studies included 2',3'-dideoxyadenosine5'-triphosphate as an internal recovery marker. The nucleotides were fractionated by high performance liquid chromatography on an Whatman Partisil-10 SAX column, applying a gradient of zero to 100 percent buffer B in buffer A. Buffer A was 7 mM potassium phosphate pH 3.4. Buffer B was 0.5 M potassium phosphate, pH 3.4, one M KCl. The flow rate was 1.5 ml/minute, 1 minute fractions were collected. Buffer A was used alone for the first ten fractions after which elution with Buffer B began and was continued through fraction thirty, after which the eluting buffer was completely Buffer B. The nucleoside was eluted by about fraction six. The monophosphate eluted between about fractions fifteen and eighteen, the diphosphate between about fractions twenty-seven and thirty-two, and the triphosphate eluted between about fractions fifty-one and about sixty-five.

[2] = system: wild type CEM T cells; format: in vitro ADME, human
Protocol: Extracts of wild type CEM cells that had been incubated with 3 uM [8-^3 H]-2-chloro-2',3'-dideoxyadenosine for 4 hours were fractionated by ion exchange high performance liquid chromatography (HPLC). Detected radioactive peaks corresponded to the free deoxynucleoside and to the 5'-mono-, di- and tri-phosphates, respectively. The total intracellular 2-chloro-2',3'-dideoxynucleotide content was 30 pmols/10^8 cells. The identity of the peaks was confirmed by enzymatic dephosphorylation, and reverse phase HPLC in the presence of authentic 2-chloro-2',3'-dideoxyadenosine.
as §1, §2, §3, §4, §5, §6, §7, §8

[3] = biological target: T1, calf intestinal adenosine deaminase (Bos taurus, UniProt P56658); assay: Metabolism by adenosine deaminase (spectrophotometric deamination, Lineweaver-Burke); format: biochemical
T1 sequence (P56658 1-363): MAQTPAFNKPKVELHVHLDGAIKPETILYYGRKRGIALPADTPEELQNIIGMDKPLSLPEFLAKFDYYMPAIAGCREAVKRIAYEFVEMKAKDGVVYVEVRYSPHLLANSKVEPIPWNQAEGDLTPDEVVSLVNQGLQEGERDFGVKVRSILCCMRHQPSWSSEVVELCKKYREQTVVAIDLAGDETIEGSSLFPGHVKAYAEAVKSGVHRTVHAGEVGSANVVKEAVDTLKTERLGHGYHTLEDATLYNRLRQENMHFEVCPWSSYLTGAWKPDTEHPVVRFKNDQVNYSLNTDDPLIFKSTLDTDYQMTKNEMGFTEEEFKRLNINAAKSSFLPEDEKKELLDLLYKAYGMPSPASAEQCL
Protocol: ^1 The indicated nucleosides at concentrations from 5-200 uM were
incubated at 18-20° C. with 0.01 EU/ml calf intestinal adenosine
deaminase in 10 mM sodium phosphate, pH 7.5. Deamination was monitored
spectrophotometrically at 265 nanometers (nm) and 250 nm, as described
The individual nucleosides, at concentrations from 5-200 uM in 10 mM sodium phosphate, pH 7.5, were incubated at 18-20 degrees C. with 0.01 EU/ml calf intestinal adenosine deaminase. The change in the optical density at 265 nm and 250 nm was monitored spectrophotometrically.

[4] = Deoxycytidine kinase deficient CEM, 3 uM, 4 hours

In the case of Nc1nc(Cl)nc2c1ncn2[C@H]1CC[C@@H](CO)O1 [2-chloro-2',3'-dideoxyadenosine], the “Nucleotide Formed, Diphosphate” value [1, 4] is reported as 0.8 pmols/10^8 cells/4 hrs, the “Nucleotide Formed, Monophosphate” value [1, 4] is reported as 1.7 pmols/10^8 cells/4 hrs and the “Nucleotide Formed, Triphosphate” value [1, 4] is reported as 3.4 pmols/10^8 cells/4 hrs. The “accumulated phosphates relative to wild type CEM cells” value ([1]; deoxycytidine kinase deficient CEM variant, same culture conditions) was “about 20%”, the “intracellular dideoxynucleotide content after 4 hours” value ([2]; CEM 2 × 10^7 cells/ml, 37 degrees C., 3 uM 2-Cl-ddA or 2 uM ddA) was roughly 30 pmols/10^8 cells and the “Nucleotide Formed, Diphosphate” value ([2]; Wild Type CEM, 3 uM, 4 hours) was 2.8 pmols/10^8 cells/4 hrs. For the same compound, the “Nucleotide Formed, Triphosphate” value ([2]; Wild Type CEM, 3 uM, 4 hours) was 24.3 pmols/10^8 cells/4 hrs, the “total intracellular 2-chloro-2',3'-dideoxynucleotide content” value ([2]; Wild Type CEM, 3 uM, 4 hours) was 30 pmols/10^8 cells and the “Nucleotide Formed, Monophosphate” value ([2]; Wild Type CEM, 3 uM, 4 hours, 5 × 10^7 cells/ml) was 3.0 pmols/10^8 cells/4 hrs. For the same compound, the “Relative Efficiency (ratio of Vmax/Km)” value [3] was 0.04.

For Nc1ncnc2c1ncn2[C@H]1CC[C@@H](CO)O1 [2',3'-dideoxyadenosine, reference compound], the “2',3'-dideoxyadenosine uptake” value [1] was 20-30 pmols/10^8 cells, the “2',3'-dideoxyadenosine uptake” value [2] was 20-30 pmols/10^8 cells and the “Relative Efficiency (ratio of Vmax/Km)” value ([3]; relative efficiency of deamination) was 3.52.
